Source: patent publication US20240400561A1, “NOVEL SUBSTITUTED SULFONYLUREA COMPOUNDS AS INHIBITORS OF INTERLEUKIN-1 ACTIVITY” (Viva Star Biosciences (Suzhou) Co., Ltd., priority 2021, published 2024)

Target: T1, NLRP3 (Homo sapiens, UniProt Q96P20)
T1 construct: Seed THP-1 cells (5.56*10^5 cells/mL) containing 1.0 ug/mL LPS; endogenous in cells; host or cells: THP-1 cells
Assay: THP-1 cell assay (LPS priming, nigericin), IL1β release by HTRF; called pyroptosis assay, THP IC50
Type: cell-based
Details: NLRP3 inhibitory activity; THP-1 cells, 1.0 ug/mL LPS, compound 3 hrs, nigericin 5 uM 1 hr, IL1β in supernatant
Experimental: The following method was used for compound screening. • 1. Seed THP-1 cells (5.56*10^5 cells/mL) containing 1.0 ug/mL LPS (SIGMA, L6529) in 45 uL RPMI 1640 medium (without FBS) into 384-well plate (Thermo Scientific, 164688). • 2. Add 5 uL compound (10 doses starting from 5 uM, 1:3 dilution) or vehicle (0.05% DMSO in medium) to the appropriate wells. • 3. Centrifuge the plates at 1000 rpm for 2 mins and incubate for 3 hrs at 37° C., 5% CO2. • 4. Add 5 uL nigericin (MEC, HY-100381) (final conc. 5 uM) to sample wells and positive control wells; add 5 uL RPMI 1640 medium to negative control wells. • 5. Centrifuge plates at 1000 rpm for 2 mins and incubate for 1 hr at 37° C., 5% CO2. • 6. At the end of the incubation period, centrifuge plates at 1000 rpm for 6 mins and transfer 8 uL supernatant into 384-well assay plates (PerkinElmer, 6008280). • 7. Add 8 ul RPMI 1640 medium into each well and spin down for 10 secs. • 8. Prepare the standard solutions and pre-mixed IL1β antibody solution of Human […] kits (PerkinElmer, 62HIL1BPEH) according to the instruction. • 9. Add 16 uL standard solutions into clear wells of 384-well assay plates. • 10. Add 4 uL pre-mixed IL1β antibody solution to all wells including sample wells, positive control wells, negative control wells and standard solutions wells. • 11. Seal the plates, spin down for 10 secs, incubation for overnight at RT and read on an HTRF® compatible reader (BMG LABTECH, PHERAstar FS). • 12. The concentrations of IL1β for treated wells are calculated by the standard curve. • 13. The IC50 data is fitted to a non-liner regression equation (log inhibitor vs. response—Variable slope four parameters)).

T1 sequence (Q96P20 whole entry): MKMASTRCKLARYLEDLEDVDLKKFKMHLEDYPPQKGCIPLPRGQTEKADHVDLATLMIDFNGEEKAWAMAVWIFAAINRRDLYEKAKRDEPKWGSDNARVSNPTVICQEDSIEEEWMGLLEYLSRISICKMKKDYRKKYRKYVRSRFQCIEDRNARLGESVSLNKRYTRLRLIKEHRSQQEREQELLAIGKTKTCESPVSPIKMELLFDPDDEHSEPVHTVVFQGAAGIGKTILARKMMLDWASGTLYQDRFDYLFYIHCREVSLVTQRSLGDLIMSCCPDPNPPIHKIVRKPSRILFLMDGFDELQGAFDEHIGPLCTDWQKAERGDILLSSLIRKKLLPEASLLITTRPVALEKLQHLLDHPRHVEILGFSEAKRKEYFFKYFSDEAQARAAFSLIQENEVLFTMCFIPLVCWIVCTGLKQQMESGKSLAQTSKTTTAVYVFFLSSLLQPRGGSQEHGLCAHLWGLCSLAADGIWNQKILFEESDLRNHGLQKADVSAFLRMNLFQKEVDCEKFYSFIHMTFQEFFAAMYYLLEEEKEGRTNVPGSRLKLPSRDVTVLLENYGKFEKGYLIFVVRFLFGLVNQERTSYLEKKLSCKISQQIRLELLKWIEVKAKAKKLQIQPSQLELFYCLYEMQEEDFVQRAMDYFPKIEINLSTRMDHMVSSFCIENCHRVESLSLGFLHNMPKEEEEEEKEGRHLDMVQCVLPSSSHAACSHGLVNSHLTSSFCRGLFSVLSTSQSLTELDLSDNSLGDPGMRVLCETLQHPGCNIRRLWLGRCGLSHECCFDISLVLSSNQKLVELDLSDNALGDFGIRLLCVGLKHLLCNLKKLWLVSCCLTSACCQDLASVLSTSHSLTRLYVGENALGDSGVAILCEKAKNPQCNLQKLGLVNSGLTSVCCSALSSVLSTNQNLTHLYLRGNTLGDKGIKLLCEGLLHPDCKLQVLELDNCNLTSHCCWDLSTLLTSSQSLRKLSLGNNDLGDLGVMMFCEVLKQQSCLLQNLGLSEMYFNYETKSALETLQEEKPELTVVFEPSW

Row | Structure (SMILES) | IC50 [nM]
1 | Cc1cc2c(c(NC(=O)NS(=O)(=O)c3ccn([C@@H]4CC[C@@H]4O)n3)c1-c1ccn3nccc3c1)CCC2 (relative stereo) [Example 85, 1-(rel-(1R,2S)-2-hydroxycyclobutyl)-N-((6-methyl-5-(pyrazolo[1,5-a]pyridin-5-yl)-2,3-dihydro-1H-inden-4-yl)carbamoyl)-1H-pyrazole-3-sulfonamide] | > 2000
2 | Cc1cc2c(c(NC(=O)NS(=O)(=O)c3ccn(C4CC4)n3)c1-c1ccn3nccc3c1)CCC2 [Example 1, 1-cyclopropyl-N-((6-methyl-5-(pyrazolo[1,5-a]pyridin-5-yl)-2,3-dihydro-1H-inden-4-yl)carbamoyl)-1H-pyrazole-3-sulfonamide] | ≤ 30
3 | CC(C)(O)c1csc(S(=O)(=O)NC(=O)Nc2c3c(cc(C#N)c2-c2ccn4cncc4c2)CCC3)c1 [Example 2, N-((6-cyano-5-(imidazo[1,5-a]pyridin-7-yl)-2,3-dihydro-1H-inden-4-yl)carbamoyl)-4-(2-hydroxypropan-2-yl)thiophene-2-sulfonamide] | ≤ 30
4 | Cc1cc2c(c(NC(=O)NS(=O)(=O)C3CC(OC4CC4)C3)c1-c1ccnc3[nH]ccc13)CCC2 (centres unmarked) [Example 3, 3-cyclopropoxy-N-((6-methyl-5-(1H-pyrrolo[2,3-b]pyridin-4-yl)-2,3-dihydro-1H-inden-4-yl)carbamoyl)cyclobutane-1-sulfonamide] | 30 to 300
5 | Cn1ccc2c(-c3ccc4c(c3NC(=O)NS(=O)(=O)c3cnn(CC5CC5)c3)CCC4)ccnc21 [Example 4, 1-(cyclopropylmethyl)-N-((5-(1-methyl-1H-pyrrolo[2,3-b]pyridin-4-yl)-2,3-dihydro-1H-inden-4-yl)carbamoyl)-1H-pyrazole-4-sulfonamide] | 30 to 300
6 | O=C(Nc1c(-c2ccnc3[nH]ccc23)ccc2c1CCC2)NS(=O)(=O)c1cnn(CC2CC2)c1 [Example 5, N-((5-(1H-pyrrolo[2,3-b]pyridin-4-yl)-2,3-dihydro-1H-inden-4-yl)carbamoyl)-1-(cyclopropylmethyl)-1H-pyrazole-4-sulfonamide] | ≤ 30
7 | Cc1cc2c(c(NC(=O)NS(=O)(=O)c3cnn(CC4CC4)c3)c1-c1ccn3nccc3c1)CCC2 [Example 6, 1-(cyclopropylmethyl)-N-((6-methyl-5-(pyrazolo[1,5-a]pyridin-5-yl)-2,3-dihydro-1H-inden-4-yl)carbamoyl)-1H-pyrazole-4-sulfonamide] | ≤ 30
8 | O=C(Nc1c(-c2ccn3nccc3c2)ccc2c1CCC2)NS(=O)(=O)c1cnn(CC2CC2)c1 [Example 7, 1-(cyclopropylmethyl)-N-((5-(pyrazolo[1,5-a]pyridin-5-yl)-2,3-dihydro-1H-inden-4-yl)carbamoyl)-1H-pyrazole-4-sulfonamide] | ≤ 30
9 | Cc1cc2c(c(NC(=O)NS(=O)(=O)c3cnn(CC4CC4)c3)c1-c1ccnc3[nH]ccc13)CCC2 [Example 8, 1-(cyclopropylmethyl)-N-((6-methyl-5-(1H-pyrrolo[2,3-b]pyridin-4-yl)-2,3-dihydro-1H-inden-4-yl)carbamoyl)-1H-pyrazole-4-sulfonamide] | ≤ 30
10 | Cc1cc2c(c(NC(=O)NS(=O)(=O)c3ccn(CC4CC4)n3)c1-c1ccn3nccc3c1)CCC2 [Example 10, 1-(cyclopropylmethyl)-N-((6-methyl-5-(pyrazolo[1,5-a]pyridin-5-yl)-2,3-dihydro-1H-inden-4-yl)carbamoyl)-1H-pyrazole-3-sulfonamide] | ≤ 30
11 | Cc1cc2c(c(NC(=O)NS(=O)(=O)c3ccn(CC4CCC4)n3)c1-c1ccn3nccc3c1)CCC2 [Example 11, 1-(cyclobutylmethyl)-N-((6-methyl-5-(pyrazolo[1,5-a]pyridin-5-yl)-2,3-dihydro-1H-inden-4-yl)carbamoyl)-1H-pyrazole-3-sulfonamide] | ≤ 30
12 | Cc1cc2c(c(NC(=O)NS(=O)(=O)c3cnn(C4CCC4)c3)c1-c1ccn3nccc3c1)CCC2 [Example 12, 1-cyclobutyl-N-((6-methyl-5-(pyrazolo[1,5-a]pyridin-5-yl)-2,3-dihydro-1H-inden-4-yl)carbamoyl)-1H-pyrazole-4-sulfonamide] | ≤ 30
13 | N#Cc1cc2c(c(NC(=O)NS(=O)(=O)c3cnn(CC4CC4)c3)c1-c1ccn3cncc3c1)CCC2 [Example 13, N-((6-cyano-5-(imidazo[1,5-a]pyridin-7-yl)-2,3-dihydro-1H-inden-4-yl)carbamoyl)-1-(cyclopropylmethyl)-1H-pyrazole-4-sulfonamide] | ≤ 30
14 | Cc1cc2c(c(NC(=O)NS(=O)(=O)c3cnn(C4CC4)c3)c1-c1ccn3nccc3c1)CCC2 [Example 14, 1-cyclopropyl-N-((6-methyl-5-(pyrazolo[1,5-a]pyridin-5-yl)-2,3-dihydro-1H-inden-4-yl)carbamoyl)-1H-pyrazole-4-sulfonamide] | ≤ 30
15 | COC(c1cc(S(=O)(=O)NC(=O)Nc2c3c(cc(C)c2-c2ccn4nccc4c2)CCC3)nn1C)C1CC1 (centres unmarked) [Example 15, 5-(cyclopropyl(methoxy)methyl)-1-methyl-N-((6-methyl-5-(pyrazolo[1,5-a]pyridin-5-yl)2,3-dihydro-1H-inden-4-yl)carbamoyl)-1H-pyrazole-3-sulfonamide] | 30 to 300
16 | Cc1cc2c(c(NC(=O)NS(=O)(=O)c3cc(C(O)C4CC4)n(C)n3)c1-c1ccn3nccc3c1)CCC2 (centres unmarked) [Example 16, 5-(cyclopropyl(hydroxy)methyl)-1-methyl-N-((6-methyl-5-(pyrazolo[1,5-a]pyridin-5-yl)-2,3-dihydro-1H-inden-4-yl)carbamoyl)-1H-pyrazole-3-sulfonamide] | ≤ 30
17 | Cc1cc2c(c(NC(=O)NS(=O)(=O)c3cc(CC4CC4)n(C)n3)c1-c1ccn3nccc3c1)CCC2 [Example 17, 5-(cyclopropylmethyl)-1-methyl-N-((6-methyl-5-(pyrazolo[1,5-a]pyridin-5-yl)-2,3-dihydro-1H-inden-4-yl)carbamoyl)-1H-pyrazole-3-sulfonamide] | ≤ 30
18 | Cc1cc2c(c(NC(=O)NS(=O)(=O)c3cnn(CC4CC4)c3)c1-c1ccn3ccnc3c1)CCC2 [Example 18, 1-(cyclopropylmethyl)-N-((5-(imidazo[1,2-a]pyridin-7-yl)-6-methyl-2,3-dihydro-1H-inden-4-yl)carbamoyl)-1H-pyrazole-4-sulfonamide] | ≤ 30
19 | Cc1cc2c(c(NC(=O)NS(=O)(=O)c3cnn(CC4CC4)c3)c1-c1ccc3nccn3c1)CCC2 [Example 19, 1-(cyclopropylmethyl)-N-((5-(imidazo[1,2-a]pyridin-6-yl)-6-methyl-2,3-dihydro-1H-inden-4-yl)carbamoyl)-1H-pyrazole-4-sulfonamide] | ≤ 30
20 | Cc1cc2c(c(NC(=O)NS(=O)(=O)c3cnn(CC4CC4)c3)c1-c1ccc3cncn3c1)CCC2 [Example 20, 1-(cyclopropylmethyl)-N-((5-(imidazo[1,5-a]pyridin-6-yl)-6-methyl-2,3-dihydro-1H-inden-4-yl)carbamoyl)-1H-pyrazole-4-sulfonamide] | 30 to 300
21 | Cc1cc2c(c(NC(=O)NS(=O)(=O)c3cnn(CC4CC4)c3)c1-c1ccc3ccnn3c1)CCC2 [Example 21, 1-(cyclopropylmethyl)-N-((6-methyl-5-(pyrazolo[1,5-a]pyridin-6-yl)-2,3-dihydro-1H-inden-4-yl)carbamoyl)-1H-pyrazole-4-sulfonamide] | ≤ 30
22 | O=C(Nc1c(-c2cnc3ccnn3c2)ccc2c1CCC2)NS(=O)(=O)c1cnn(CC2CC2)c1 [Example 22, 1-(cyclopropylmethyl)-N-((5-(pyrazolo[1,5-a]pyrimidin-6-yl)-2,3-dihydro-1H-inden-4-yl)carbamoyl)-1H-pyrazole-4-sulfonamide] | > 2000
23 | Cc1cc2c(c(NC(=O)NS(=O)(=O)c3ccn(C4CCC4)n3)c1-c1ccn3nccc3c1)CCC2 [Example 23, 1-cyclobutyl-N-((6-methyl-5-(pyrazolo[1,5-a]pyridin-5-yl)-2,3-dihydro-1H-inden-4-yl)carbamoyl)-1H-pyrazole-3-sulfonamide] | ≤ 30
24 | O=C(Nc1c2c(cc(F)c1-c1ccn3nccc3c1)CCC2)NS(=O)(=O)c1ccn(CC2CC2)n1 [Example 24, 1-(cyclopropylmethyl)-N-((6-fluoro-5-(pyrazolo[1,5-a]pyridin-5-yl)-2,3-dihydro-1H-inden-4-yl)carbamoyl)-1H-pyrazole-3-sulfonamide] | ≤ 30
25 | O=C(Nc1c2c(cc(F)c1-c1ccn3nccc3c1)CCC2)NS(=O)(=O)c1ccn(C2CC2)n1 [Example 25, 1-cyclopropyl-N-((6-fluoro-5-(pyrazolo[1,5-a]pyridin-5-yl)-2,3-dihydro-1H-inden-4-yl)carbamoyl)pyrazole-3-sulfonamide] | ≤ 30
26 | CO[C@@H](C)Cn1ccc(S(=O)(=O)NC(=O)Nc2c3c(cc(C)c2-c2ccn4nccc4c2)CCC3)n1 [Example 26, (S)-1-(2-methoxypropyl)-N-((6-methyl-5-(pyrazolo[1,5-a]pyridin-5-yl)-2,3-dihydro-1H-inden-4-yl)carbamoyl)-1H-pyrazole-3-sulfonamide] | ≤ 30
